In brackets after ≈: the same amount, converted by molar mass.
Tests used:
[1] = test system: E. coli ATCC 25922 (AECO001); assay: MIC, CLSI broth microdilution; assay type: cell-based; details: Escherichia coli, ATCC25922, read-out: MIC AECO001, Table 1; AECO001 is ATCC25922
Description: (§1) Minimum inhibitory concentrations (MIC) were determined by reference Clinical and Laboratory Standards Institute (CLSI) broth microdilution methods per M7-A7 [2006]. Quality control ranges utilizing E. coli ATCC 25922, P. aeruginosa ATCC 27853 and S. aureus ATCC 29213, and interpretive criteria for comparator agents were as published in CLSI M100-S17 [2007]. Briefly, serial two-fold dilutions of the test compounds were prepared at 2× concentration in Mueller Hinton Broth. The compound dilutions were mixed in 96-well assay plates in a 1:1 ratio with bacterial inoculum. The inoculum was prepared by suspension of a colony from an agar plate that was prepared the previous day. Bacteria were suspended in sterile saline and added to each assay plate to obtain a final concentration of 5×10^5 CFU/mL. The plates were incubated at 35° C. for 20 hours in ambient air.

[2] = test system: P. aeruginosa ATCC 27853 (APAE001); assay: MIC, CLSI broth microdilution; assay type: cell-based; details: Pseudomonas aeruginosa, ATCC27853, read-out: MIC APAE001, Table 1; APAE001 is ATCC27853
Description: as §1

SMILES | MIC [1] | MIC [2]
CN[C@@H]1[C@@H](O)[C@@H](O[C@@H]2[C@@H](O)[C@H](O[C@H]3OC(CNC[C@H]4C[C@H](N)C4)=CC[C@H]3N)[C@@H](N)C[C@H]2NC(=O)C2(O)CNC2)OC[C@]1(C)O [Example 63] | < 1 µg/mL | 1 to 16 µg/mL (≈ 1.59 to 25.4 µM)
CN[C@@H]1[C@@H](O)[C@@H](O[C@@H]2[C@@H](O)[C@H](O[C@H]3OC(CNC[C@@H]4C[C@H](N)CN4)=CC[C@H]3N)[C@@H](N)C[C@H]2NC(=O)[C@@H](O)CN)OC[C@]1(C)O [Example 65, 6′-(Methyl-4(S)-amino-pyrrolidin-2(S)-yl)-1-(3-amino-2(S)-hydroxy-propionyl)-sisomicin] | 1 to 16 µg/mL (≈ 1.58 to 25.3 µM) | 1 to 16 µg/mL (≈ 1.58 to 25.3 µM)
CN[C@@H]1[C@@H](O)[C@@H](O[C@@H]2[C@@H](O)[C@H](O[C@H]3OC(CNCC4(CN)CC4)=CC[C@H]3N)[C@@H](N)C[C@H]2NC(=O)[C@@H](O)CN)OC[C@]1(C)O [Example 66, 6′-(Methyl-1-aminomethyl-cyclopropyl)-1-(3-amino-2(S)-hydroxy-propionyl)-sisomicin] | < 1 µg/mL | 1 to 16 µg/mL (≈ 1.62 to 25.9 µM)
CN[C@@H]1[C@@H](O)[C@@H](O[C@@H]2[C@@H](O)[C@H](O[C@H]3OC(CNCC4(N)CC4)=CC[C@H]3N)[C@@H](N)C[C@H]2NC(=O)[C@@H](O)CN)OC[C@]1(C)O [Example 67, 6′-(Methyl-1-Amino-cyclopropyl)-1-(3-amino-2(S)-hydroxy-propionyl)-sisomicin] | 1 to 16 µg/mL (≈ 1.66 to 26.5 µM) | 1 to 16 µg/mL (≈ 1.66 to 26.5 µM)
CN[C@@H]1[C@@H](O)[C@@H](O[C@@H]2[C@@H](O)[C@H](O[C@H]3OC(CNCC(O)CCN)=CC[C@H]3N)[C@@H](N)C[C@H]2NC(=O)[C@@H](O)CN)OC[C@]1(C)O (stereo partly drawn) [Example 68, 6′-(2-Hydroxy-4-amino-butyl)-1-(3-amino-2(S)-hydroxy-propionyl)-sisomicin] | 1 to 16 µg/mL (≈ 1.61 to 25.7 µM) | 1 to 16 µg/mL (≈ 1.61 to 25.7 µM)
CN[C@@H]1[C@@H](O)[C@@H](O[C@@H]2[C@@H](O)[C@H](O[C@H]3OC(CNC[C@H]4C[C@@H](N)[C@@H](O)C4)=CC[C@H]3N)[C@@H](N)C[C@H]2NC(=O)[C@@H](O)CN)OC[C@]1(C)O [Example 69, 6′-(Methyl-1(R)-amino-2(S)-hydroxy-cyclopent-4(S)-yl)-1-(3-amino-2(S)-hydroxy-propionyl)-sisomicin] | < 1 µg/mL | 1 to 16 µg/mL (≈ 1.54 to 24.7 µM)
CN[C@@H]1[C@@H](O)[C@@H](O[C@@H]2[C@@H](O)[C@H](O[C@H]3OC(CNCCC4(O)CNC4)=CC[C@H]3N)[C@@H](N)C[C@H]2NC(=O)[C@@H](O)CN)OC[C@]1(C)O [Example 70, 6′-(Ethyl-2-(3-hydroxy-azetidin-3-yl))-1-(3-amino-2(S)-hydroxy-propionyl)-sisomicin] | 1 to 16 µg/mL (≈ 1.58 to 25.2 µM) | > 16 µg/mL
CN[C@@H]1[C@@H](O)[C@@H](O[C@@H]2[C@@H](O)[C@H](O[C@H]3OC(CNCC4CC4)=CC[C@H]3N)[C@@H](N)C[C@H]2NC(=O)C(O)C2CNC2)OC[C@]1(C)O (some centres unmarked) [Example 71, 6′-Methylcyclopropyl-1-(2-(azetidin-3-yl)-2-hydroxy-acetyl)-sisomicin] | 1 to 16 µg/mL (≈ 1.63 to 26 µM) | > 16 µg/mL
CN[C@@H]1[C@@H](O)[C@@H](O[C@@H]2[C@@H](O)[C@H](O[C@H]3OC(CNC[C@H]4C[C@H](N)C4)=CC[C@H]3N)[C@@H](N)C[C@H]2NC(=O)C(O)C2CNC2)OC[C@]1(C)O (stereo partly drawn) [Example 72, 6′-(Methyl-trans-3-amino-cyclobutyl)-1-(2-(azetidin-3-yl)-2-hydroxy-acetyl)-sisomicin] | 1 to 16 µg/mL (≈ 1.55 to 24.9 µM) | 1 to 16 µg/mL (≈ 1.55 to 24.9 µM)
CN[C@@H]1[C@@H](O)[C@@H](O[C@@H]2[C@@H](O)[C@H](O[C@H]3OC(CNCC4CNC4)=CC[C@H]3N)[C@@H](N)C[C@H]2NC(=O)[C@@H](O)CN)OC[C@]1(C)O [Example 73, 6′-(Methyl-azetidin-3-yl)-1-(3-amino-2(S)-hydroxy-propionyl)-sisomicin] | 1 to 16 µg/mL (≈ 1.66 to 26.5 µM) | 1 to 16 µg/mL (≈ 1.66 to 26.5 µM)
CN[C@@H]1[C@@H](O)[C@@H](O[C@@H]2[C@@H](O)[C@H](O[C@H]3OC(CNCC4(CN)CC4)=CC[C@H]3N)[C@@H](N)C[C@H]2NC(=O)C(O)C2CNC2)OC[C@]1(C)O (some centres unmarked) [Example 74, 6′-(Methyl-1-aminomethyl-cyclopropyl)-1-(2-(azetidin-3-yl)-2-hydroxy-acetyl)-sisomicin] | 1 to 16 µg/mL (≈ 1.55 to 24.9 µM) | > 16 µg/mL
CN[C@@H]1[C@@H](O)[C@@H](O[C@@H]2[C@@H](O)[C@H](O[C@H]3OC(CNCCO)=CC[C@H]3N)[C@@H](N)C[C@H]2NC(=O)C(O)C2CNC2)OC[C@]1(C)O (some centres unmarked) [Example 75, 6′-(2-Hydroxy-ethyl)-1-(2-(azetidin-3-yl)-2-hydroxy-acetyl)-sisomicin] | 1 to 16 µg/mL (≈ 1.65 to 26.5 µM) | > 16 µg/mL
CN[C@@H]1[C@@H](O)[C@@H](O[C@@H]2[C@@H](O)[C@H](O[C@H]3OC(CNCCCN)=CC[C@H]3N)[C@@H](N)C[C@H]2NC(=O)C(O)C2CNC2)OC[C@]1(C)O (some centres unmarked) [Example 76, 6′-(3-Amino-propyl)-1-(2-(azetidin-3-yl)-2-hydroxy-acetyl)-sisomicin] | 1 to 16 µg/mL (≈ 1.62 to 25.9 µM) | 1 to 16 µg/mL (≈ 1.62 to 25.9 µM)
CN[C@@H]1[C@@H](O)[C@@H](O[C@@H]2[C@@H](O)[C@H](O[C@H]3OC(CNCC(O)CCN)=CC[C@H]3N)[C@@H](N)C[C@H]2NC(=O)C(O)C2CNC2)OC[C@]1(C)O (some centres unmarked) [Example 77, 6′-(2-Hydroxy-4-amino-butyl)-1-(2-(azetidin-3-yl)-2-hydroxy-acetyl)-sisomicin] | 1 to 16 µg/mL (≈ 1.54 to 24.7 µM) | 1 to 16 µg/mL (≈ 1.54 to 24.7 µM)
CN[C@@H]1[C@@H](O)[C@@H](O[C@@H]2[C@@H](O)[C@H](O[C@H]3OC(CNC[C@H]4C[C@H](N)C4)=CC[C@H]3N)[C@@H](N)C[C@H]2NC(=O)C2(O)CCNC2)OC[C@]1(C)O (stereo partly drawn) [Example 78, 6′-(Methyl-trans-3-amino-cyclobutyl)-1-(3-hydroxy-pyrrolidin-3-yl-acetyl)-sisomicin] | < 1 µg/mL | 1 to 16 µg/mL (≈ 1.55 to 24.9 µM)
CN[C@@H]1[C@@H](O)[C@@H](O[C@@H]2[C@@H](O)[C@H](O[C@H]3OC(CNCC4(CN)CC4)=CC[C@H]3N)[C@@H](N)C[C@H]2NC(=O)C2(O)CCNC2)OC[C@]1(C)O (some centres unmarked) [Example 79] | 1 to 16 µg/mL (≈ 1.55 to 24.9 µM) | > 16 µg/mL
CN[C@@H]1[C@@H](O)[C@@H](O[C@@H]2[C@@H](O)[C@H](O[C@H]3OC(CNCCCC(O)CN)=CC[C@H]3N)[C@@H](N)C[C@H]2NC(=O)[C@@H](O)CN)OC[C@]1(C)O (stereo partly drawn) [Example 80, 6′-(4-Hydroxy-5-amino-pentyl)-1-(3-amino-2(S)-hydroxy-propionyl)-sisomicin] | < 1 µg/mL | < 1 µg/mL
CN[C@@H]1[C@@H](O)[C@@H](O[C@@H]2[C@@H](O)[C@H](O[C@H]3OC(CNCCNC4CNC4)=CC[C@H]3N)[C@@H](N)C[C@H]2NC(=O)[C@@H](O)CN)OC[C@]1(C)O [Example 81, 6′-(N-(Azetidin-3-yl)-2-amino-ethyl)-1-(3-amino-2(S)-hydroxy-propionyl)-sisomicin] | 1 to 16 µg/mL (≈ 1.58 to 25.3 µM) | > 16 µg/mL
CN[C@@H]1[C@@H](O)[C@@H](O[C@@H]2[C@@H](O)[C@H](O[C@H]3OC(CNCC(O)CN)=CC[C@H]3N)[C@@H](N)C[C@H]2NC(=O)C(O)C2CNC2)OC[C@]1(C)O (some centres unmarked) [Example 82, 6′-(2-Hydroxy-3-amino-propyl)-1-(2-(azetidin-3-yl)-2-hydroxy-acetyl)-sisomicin] | 1 to 16 µg/mL (≈ 1.58 to 25.2 µM) | > 16 µg/mL
CN[C@@H]1[C@@H](O)[C@@H](O[C@@H]2[C@@H](O)[C@H](O[C@H]3OC(CNCC4(O)CC(N)C4)=CC[C@H]3N)[C@@H](N)C[C@H]2NC(=O)C(O)C2CNC2)OC[C@]1(C)O (some centres unmarked) [Example 83, 6′-(Methyl-3-amino-1-hydroxy-cyclobutyl)-1-(2-(azetidin-3-yl)-2-hydroxy-acetyl)-sisomicin] | 1 to 16 µg/mL (≈ 1.52 to 24.3 µM) | > 16 µg/mL
CN[C@@H]1[C@@H](O)[C@@H](O[C@@H]2[C@@H](O)[C@H](O[C@H]3OC(CN)=CC[C@H]3NCC3CCNC3)[C@@H](N)C[C@H]2NC(=O)[C@@H](O)CCN)OC[C@]1(C)O (stereo partly drawn) [Example 84, 2′-(Methyl-pyrrolidin-3-yl)-1-(4-amino-2(S)-hydroxy-butyryl)-sisomicin] | < 1 µg/mL | 1 to 16 µg/mL (≈ 1.58 to 25.3 µM)
CN[C@@H]1[C@@H](O)[C@@H](O[C@@H]2[C@@H](O)[C@H](O[C@H]3OC(CN)=CC[C@H]3NCC3CCCN3)[C@@H](N)C[C@H]2NC(=O)[C@@H](O)CCN)OC[C@]1(C)O (stereo partly drawn) [Example 85, 2′-(Methyl-pyrrolidin-2-yl)-1-(4-amino-2(S)-hydroxy-butyryl)-sisomicin] | < 1 µg/mL | 1 to 16 µg/mL (≈ 1.58 to 25.3 µM)
CNCC(=O)N[C@@H]1CC=C(CN)O[C@@H]1O[C@H]1[C@H](O)[C@@H](O[C@H]2OC[C@](C)(O)[C@H](NC)[C@H]2O)[C@H](NC(=O)[C@@H](O)CCN)C[C@@H]1N [Example 86, 2′-(N-Methyl-amino-acetyl)-1-(4-amino-2(S)-hydroxy-butyryl)-sisomicin] | 1 to 16 µg/mL (≈ 1.61 to 25.8 µM) | 1 to 16 µg/mL (≈ 1.61 to 25.8 µM)
CN[C@@H]1[C@@H](O)[C@@H](O[C@@H]2[C@@H](O)[C@H](O[C@H]3OC(CN)=CC[C@H]3NC(=O)CN)[C@@H](N)C[C@H]2NC(=O)[C@@H](O)CCN)OC[C@]1(C)O [Example 87, 2′-(2-Amino-acetyl)-1-(4-amino-2(S)-hydroxy-butyryl)-sisomicin] | 1 to 16 µg/mL (≈ 1.65 to 26.4 µM) | 1 to 16 µg/mL (≈ 1.65 to 26.4 µM)
CN[C@@H]1[C@@H](O)[C@@H](O[C@@H]2[C@@H](O)[C@H](O[C@H]3OC(CN)=CC[C@H]3NC(=O)C(C)N)[C@@H](N)C[C@H]2NC(=O)[C@@H](O)CCN)OC[C@]1(C)O (stereo partly drawn) [Example 88, 2′-(2-Amino-propionyl)-1-(4-amino-2(S)-hydroxy-butyryl)-sisomicin] | 1 to 16 µg/mL (≈ 1.61 to 25.8 µM) | 1 to 16 µg/mL (≈ 1.61 to 25.8 µM)
